Columns and labels:
Adenosine receptor A1 = biological target: T1, Adenosine receptor A1 (Cavia porcellus, UniProt P47745); assay: In vitro prolonging of the stimulus-QRS interval in guinea pig heart.
T1 sequence (P47745 whole entry): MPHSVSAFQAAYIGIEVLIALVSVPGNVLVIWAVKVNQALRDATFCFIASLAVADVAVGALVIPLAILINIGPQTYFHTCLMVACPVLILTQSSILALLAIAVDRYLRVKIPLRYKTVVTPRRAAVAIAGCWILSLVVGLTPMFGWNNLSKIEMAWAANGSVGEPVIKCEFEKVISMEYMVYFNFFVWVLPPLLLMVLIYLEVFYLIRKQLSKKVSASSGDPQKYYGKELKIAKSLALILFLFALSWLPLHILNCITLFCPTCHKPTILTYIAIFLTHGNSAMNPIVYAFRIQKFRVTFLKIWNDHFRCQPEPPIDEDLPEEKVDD

[1] = biological target: Adenosine A2 receptor (Cavia porcellus); assay: In vitro effect on coronary vasodilation in guinea pig heart.

SMILES | EC50 (Adenosine receptor A1) [µM] | -Log EC50 [1]
CC(C)C/C=N/Nc1nc(N)c2ncn([C@@H]3O[C@H](CO)[C@@H](O)[C@H]3O)c2n1 | 20.9 | 9.33
Nc1nc(NCCC2=CCCCC2)nc2c1ncn2C1O[C@H](CO)[C@@H](O)[C@H]1O (stereo partly specified) | 22.9 | 8.65
CCC/C=N/Nc1nc(N)c2ncn(C3O[C@H](CO)[C@@H](O)[C@H]3O)c2n1 (stereo partly specified) | 11.5 | 8.54
CC(C)/C=N/Nc1nc(N)c2ncn(C3O[C@H](CO)[C@@H](O)[C@H]3O)c2n1 (stereo partly specified) | 12.6 | 8.13
Nc1nc(N/N=C/C2=CCCCC2)nc2c1ncn2C1O[C@H](CO)[C@@H](O)[C@H]1O (stereo partly specified) | 17.4 | 
C/C=N/Nc1nc(N)c2ncn(C3O[C@H](CO)[C@@H](O)[C@H]3O)c2n1 (stereo partly specified) | 3.63 | 7.12
CC(C)=NNc1nc(N)c2ncn(C3O[C@H](CO)[C@@H](O)[C@H]3O)c2n1 (stereo partly specified) | 12 | 7.3
Nc1nc(N/N=C/CC2CCCCC2)nc2c1ncn2C1O[C@H](CO)[C@@H](O)[C@H]1O (stereo partly specified) | 9.77 | 9.16
Nc1nc(N/N=C/CCC2CCCCC2)nc2c1ncn2C1O[C@H](CO)[C@@H](O)[C@H]1O (stereo partly specified) | 66.1 | 
CC/C=N/Nc1nc(N)c2ncn(C3O[C@H](CO)[C@@H](O)[C@H]3O)c2n1 (stereo partly specified) | 13.5 | 7.88
Nc1nc(N/N=C/C2=CC3CCC2C3)nc2c1ncn2C1O[C@H](CO)[C@@H](O)[C@H]1O (stereo partly specified) | 20.4 | 8.48
NNc1nc(N)c2ncn(C3O[C@H](CO)[C@@H](O)[C@H]3O)c2n1 (stereo partly specified) | 20 | 
CC(C)(C)/C=N/Nc1nc(N)c2ncn(C3O[C@H](CO)[C@@H](O)[C@H]3O)c2n1 (stereo partly specified) | 25.1 | 7.46
CCC(/C=N/Nc1nc(N)c2ncn(C3O[C@H](CO)[C@@H](O)[C@H]3O)c2n1)CC (stereo partly specified) | 11 | 8.24
Nc1nc(N/N=C/C2CC=CCC2)nc2c1ncn2C1O[C@H](CO)[C@@H](O)[C@H]1O (stereo partly specified) | 7.24 | 
CCCC/C=N/Nc1nc(N)c2ncn(C3O[C@H](CO)[C@@H](O)[C@H]3O)c2n1 (stereo partly specified) | 25.1 | 8.99
CC1(C)C2CC=C(/C=N/Nc3nc(N)c4ncn(C5O[C@H](CO)[C@@H](O)[C@H]5O)c4n3)C1C2 (stereo partly specified) | 25.7 | 
CCC(CC)=NNc1nc(N)c2ncn(C3O[C@H](CO)[C@@H](O)[C@H]3O)c2n1 (stereo partly specified) | 8.91 | 6.75
CCC/C(C)=N/Nc1nc(N)c2ncn(C3O[C@H](CO)[C@@H](O)[C@H]3O)c2n1 (stereo partly specified) | 16.6 | 8.7
Nc1nc(NCCC2CCCCC2)nc2c1ncn2C1O[C@H](CO)[C@@H](O)[C@H]1O (stereo partly specified) | 12.3 | 8.72
Nc1nc(N/N=C/C2CCCCC2)nc2c1ncn2[C@@H]1O[C@H](CO)[C@@H](O)[C@H]1O [BINODENOSON] | 3.55 | 

Source: ChEMBL document CHEMBL1126185, “2-(N'-alkylidenehydrazino)adenosines: potent and selective coronary vasodilators” (J Med Chem, 1992)
